How the values were obtained:
[1] = Body weight change in irradiated mice; type: in vivo, Balb/c mice
Experimental: A study was performed on mice to determine the efficacy of topically-dosed CBD in an olive oil vehicle for the treatment of acute radiation-induced dermatitis. Three different CBD dosages were used— 30 mg/mL (3 wt %), 120 mg/mL (12 wt %), and 250 mg/mL (25 wt %).
144 female Balb/c mice with an average starting body weight (±SEM) of 17.96±0.12 grams were randomized into six (6) groups of 24 animals each, as follows:
The control group (Group 1) was not irradiated. The animals in Groups 2-6 were anesthetized via a single intraperitoneal injection of xylazine and ketamine prior to being administered a single dose of 30 Grays (Gy) of radiation directed at a 2 cm×4 cm patch of shaved dorsal skin on Day 0. Radiation was generated by a 160 kVp (15-ma) X-ray source at a focal distance of 10 cm, hardened with a 0.35 mm Cu filtration system at a rate of approximately 3.2 Gy/minute.
Dosing for animals in Groups 3-6 began on Day 0 immediately after radiation. Treatments were administered topically (0.1 mL per animal) daily from Days 0-28.
Starting on Day 8 and continuing every other day thereafter (Days 8-28), each animal was evaluated for skin redness and dermatitis, and photographed for subsequent blinded scoring of dermatitis at the completion of the study. Body weight was taken daily.

[2] = LDH cytotoxicity assay in 3D in vitro skin model; type: cell-based; settings: no UV, topical 24 h
Experimental: (§1) A 3D in vitro skin model containing epidermal keratinocytes and dermal fibroblasts was used. Some tissues were irradiated with 200 mJ UVB/cm^2. Test materials were applied topically for 24 hours (after UVB exposure) and an MTT assay was used to check the viability of cells. The following treatment groups were used: • olive oil (no CBD); • CBD in olive oil in concentrations of 30, 60, 120, and 250 mg/mL; • No treatment; and • Triton-X® as positive control.
(§2) Cytotoxicity was assessed with a lactate dehydrogenase (LDH) assay using media collected from the wells of the tissues. Increased LDH activity is an indicator of damaged or dead cells.
(§3) The results are provided in the following Table A, with the untreated group defining 0% cytotoxicity and Triton-X defining 100% cytotoxicity. Lower cytotoxicity is better. * indicates p≤0.05 and ** indicates p≤0.01 statistical significance after performing unpaired t-test.

[3] = tested on: 3D in vitro skin model containing epidermal keratinocytes and dermal fibroblasts; experiment: LDH cytotoxicity assay in 3D in vitro skin model; type: cell-based; settings: light or radiation study, UV (200 mJ UVB/cm^2), topical 24 h
Experimental: as §1, §2, §3

With `C=C(C)[C@@H]1CCC(C)=C[C@H]1c1c(O)cc(CCCCC)cc1O` [CBD, 2-[(1R,6R)-6-Isopropenyl-3-methylcyclohex-2-en-1-yl]-5-pentylbenzene-1,3-diol] the “Percent weight change over time” value ([1]; 30 mg/mL and 120 mg/mL CBD groups, topical daily Days 0-28, FIG. 1) was “most closely followed the curve of the naïve group”, the “Percent weight change, difference between CBD-treated groups and the other three groups” value ([1]; three CBD-treated groups (30, 120, 250 mg/mL)) was “not found to be statistically significant” and the cytotoxicity at 24 h, 30 mg/mL ([2]; 30 mg/mL CBD in olive oil, untreated=0%, Triton-X=100%) was 4%. The cytotoxicity at 24 h, 60 mg/mL ([2]; 60 mg/mL CBD in olive oil) was 4%, the cytotoxicity at 24 h, 120 mg/mL ([2]; 120 mg/mL CBD in olive oil) was 5% and the cytotoxicity at 24 h, 250 mg/mL ([2]; 250 mg/mL CBD in olive oil) was 11%. For the same compound, the cytotoxicity at 30000 µg/mL ([3]; 30 mg/mL CBD in olive oil) was 17%, the cytotoxicity at 60000 µg/mL ([3]; 60 mg/mL CBD in olive oil) was 19% and the cytotoxicity at 120000 µg/mL ([3]; 120 mg/mL CBD in olive oil) was 16%. For the same compound, the cytotoxicity at 250000 µg/mL ([3]; 250 mg/mL CBD in olive oil) was 16%.

Source: patent US12059393B2, “Compositions for topical treatment of radiation dermatitis” (Akos Biosciences, Inc, priority 2022, dated 2024)
